# Experimental data reported in publication PMC7795729 (International Journal of Molecular Sciences, 2020).
# Experiments:
# [1] = cellular uptake kinetics; cited from earlier work
# Source text: In view of the above, we decided to explore how the coupling of Tacrine with the cell-penetrating peptide (CPP) MAP might enhance its anti-cancer effect. CPPs are considered versatile carriers due to their unique ability to transport a wide range of molecules such as proteins, nucleic acids, contrast agents, drugs, and promote their intracellular delivery with limited toxicity. […] MAP (named after “model amphipathic peptide”) is an artificial ...
# [2] = test system: MCF-7 (breast cancer) cells; details: for IC50: read-out: IC50, MCF-7 cell viability, MTT, dose-response 1, 2.5, 5, 10, 20 and 25 µM, 24 h, triplicates, n = 3
# Description: (§1) MCF-7 cells and SH-SY5Y cells were maintained in a culture flask (25 cm^2) with full growth medium DMEM supplemented with 10% FBS and penicillin and streptomycin (final concentration of 100 U/mL and 0.1 mg/mL, respectively) were kept in an incubator at 37 °C and 5% CO2. In the culture flask, the medium was changed at least twice a week, while trypsinization was done at least once a week. Trypsinization was made when there was more than 80% confluence of the monolayer and cell passages used were lower than 35.
# (§2) For cytotoxicity evaluation, MCF-7 cells were seeded in 48-well plates at a density of 25 × 10^4 cells per well in a final volume of 250 µL of culture medium. Cells were given 24 h to attach before they were incubated with the compounds in the study. […] H2O and DMSO were used in control, with the volume added being the one used for each concentration.
# The MTT assay can be used to assess the cell’s metabolic activity. MTT, a water-soluble compound, is reduced by the complex II of the mitochondrial respiratory chain to a water-insoluble blue formazan product. Only viable cells can metabolize MTT, so the metabolic activity is proportional to the quantity of formazans produced). After a 24 h incubation with the compounds in the study at 37 °C with 5% CO2, the cells were retrieved from the incubator and the medium was discarded. A previously warmed medium with MTT (0.5 mg/mL) was added (200 μL per well) and cells were maintained for 3 h at 37 °C and 5% CO2. Then the medium was aspirated again and DMSO (200 μL) was added to cause cellular lysis and solubilize the formazan crystals. The complete dissolution of the crystals was obtained by putting the plates on a shaking platform for 15 min, protected from light. The absorbance was read at 570 nm in a microplate reader (BioTeK Model Synergy HT, Winooski, VT, USA). Results were expressed as percentage of control cells.
# [3] = test system: MCF-7 cells; assay: Analysis of drug interactions (Chou-Talalay, CompuSyn); assay type: cell-based, human; details: n = 3
# Description: To quantify the interaction of Tacrine and MAP in the conjugate, the dose-effect curves were estimated by the unified theory, introduced by Chou and Talalay using CompuSyn software (ComboSyn, Inc., New York, NY, USA). The dose was plotted on the y-axis as a function of effect level (Fa) on the x-axis to assess the drugs’ behavior. Experiments were conducted in triplicate (n = 3) with three replications.
# [4] = biological target: T1, acetylcholinesterase (AChE from the electric eel) (Electrophorus electricus, UniProt O42275); assay: AChE in vitro inhibition assay (Ellman's method); assay type: biochemical
# T1 construct: purchased Sigma-Aldrich
# Description: Apart from its main function, this enzyme can efficiently hydrolyze a sulfur analogue of acetylcholine–acetylthiocholine. The products of this reaction are acetate and thiocholine, with the latter reacting with the highly reactive DNTB ion, generating a 5-thio-2-nitrobenzoate anion that has a yellow color and it can be detected by measuring the increase of absorbance at 412 nm. 3 mL of assay medium (phosphate buffer pH 7.4 + 150 µL DNTB 0.01 M + 30 µL AChE 2.0 units/mL) was put into cuvettes. The positive control was incubated at 37 °C for 15 min and then was added 150 µL of substrate (acetylthiocholine 0.01 M). […] After the addition of substrate to the assay medium, it was measured the increase in absorbance at 412 nm for 30 s intervals for 5 min (300 s) at 37 °C.
# The absorbance was measured in the JENWAY 6300 Spectrophotometer. All conditions were made in triplicates. The value of the initial absorbance was subtracted to the value of the absorbance at 300 s and that was considered as the biological activity.
# [5] = test system: SH-SY5Y (neuroblastoma) cells; assay: MTT reduction assay, SH-SY5Y cells; assay type: cell-based, human
# Description: as §1
# Cells were given 24 h to attach before they were incubated with the compounds in the study. The cells were treated with different concentrations (1, 2.5, 5, and 10 µM) of Tacrine, MAP, and Tacrine-MAP for 24 h with a final volume per well of 200 μL of complete medium. H2O and DMSO were used in control, with the volume added being the one used for each concentration. After the period of incubation, the MTT reduction was performed in both cell lines.
# The MTT assay can be used to assess the cell’s metabolic activity. […] Only viable cells can metabolize MTT, so the metabolic activity is proportional to the quantity of formazans produced). […] The absorbance was read at 570 nm in a microplate reader (BioTeK Model Synergy HT, Winooski, VT, USA). Results were expressed as percentage of control cells.
# [6] = test system: MCF-7 cells; assay: Cell morphology visualization (phase contrast, Lionheart FX), MCF-7 cells; assay type: cell-based, human; details: 24 h incubation; Tacrine all concentrations tested; MAP 5, 10, 20 and 25 μM; conjugate higher concentrations
# Description: as §2
# (§3) After the treatments, cell morphology and growth were assessed by the contrast phase microscope Lionheart FX (Biotech, VT, USA) with the use of Gen5 software (Biotech, USA). The cell count of MCF-7 cells was assessed by Lionheart FX (Biotech, USA) using Gen5 software (Biotech, USA).
# [7] = test system: SH-SY5Y cells; assay: Cell count analysis (Lionheart FX), SH-SY5Y cells; assay type: cell-based, human; details: SH-SY5Y, 1, 2.5, 5 and 10 µM, 24 h incubation, n = 1
# [8] = test system: MCF-7 cells; assay: Cell count analysis (Lionheart FX), MCF-7 cells; assay type: cell-based, human; details: 24 h incubation, n = 1
# Description: as §2, §3
# [9] = test system: breast tumor cells (MCF-7); details: cited from earlier work
# Source text: Drug combination is a strategy increasingly used in oncology because it allows taking advantage of the maximum therapeutic effect of two or more drugs, by combining different mechanisms of action, while reducing required doses and, consequently, side effects. Drug repurposing is another strategy that allows overcoming the disadvantages of the traditional development of novel anticancer drugs, by searching for new therapeutic uses for drugs already approved for other indications. This allows the reduction of costs related to the development of new drugs while promoting a faster route towards th ...
# [10] = summary statement of the abstract
# T1 sequence (O42275 24-633): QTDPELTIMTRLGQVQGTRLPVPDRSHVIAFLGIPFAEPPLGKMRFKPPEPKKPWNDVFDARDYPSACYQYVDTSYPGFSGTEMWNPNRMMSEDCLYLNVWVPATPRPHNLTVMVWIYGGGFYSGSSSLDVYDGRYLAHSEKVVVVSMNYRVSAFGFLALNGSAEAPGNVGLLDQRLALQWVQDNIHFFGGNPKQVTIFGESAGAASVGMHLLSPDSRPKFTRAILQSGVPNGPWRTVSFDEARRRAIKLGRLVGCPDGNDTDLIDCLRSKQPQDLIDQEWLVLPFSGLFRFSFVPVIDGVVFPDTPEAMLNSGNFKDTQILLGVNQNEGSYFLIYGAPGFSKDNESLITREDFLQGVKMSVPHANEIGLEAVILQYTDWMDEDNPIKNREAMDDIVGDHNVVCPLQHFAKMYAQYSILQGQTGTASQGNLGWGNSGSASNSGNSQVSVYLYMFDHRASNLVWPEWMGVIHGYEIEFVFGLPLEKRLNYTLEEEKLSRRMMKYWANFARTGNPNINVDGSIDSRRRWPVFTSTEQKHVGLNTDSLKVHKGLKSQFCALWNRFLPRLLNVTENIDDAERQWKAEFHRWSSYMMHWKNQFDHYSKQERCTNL
Compound,Cellular uptake among several CPP (in words) [1],IC50 [2] [µM],Drug interaction of MAP and Tacrine in decreasing cell viability ([3]; higher doses),Drug interaction of MAP and Tacrine in decreasing cell viability ([3]; lower doses of drug and peptide),IC50 [4] [µM],"Toxicity to SH-SY5Y cells (in words) [5, 10]","Toxicity to MCF-7 cells (in words) [2, 10]",Morphological changes of MCF-7 cells vs control (in words) [6],Cell count (in words) [7],"Cell count (in words) ([8]; MCF-7, 1, 2.5, 5 and 10 µM)","Cell count (in words) ([8]; MCF-7, 20 and 25 µM)","MTT reduction compared to control (in words) ([5]; SH-SY5Y, 1, 2.5, 5 and 10 µM, 24 h incubation)","MTT reduction compared to control (in words) ([2]; MCF-7, 1, 2.5, 5 and 10 µM, 24 h incubation)","Activity on MCF-7 cells (in words) ([9]; 50 µM, alone)",Cytotoxicity against MCF-7 cells in combination with 5-FU (in words) ([9]; combination with 5-Fluorouracil)
CC(C)C[C@H](NC(=O)[C@H](C)NC(=O)[C@H](CCCCN)NC(=O)[C@H](CC(C)C)NC(=O)[C@H](C)NC(=O)[C@H](CC(C)C)NC(=O)[C@H](CCCCN)NC(=O)[C@H](CC(C)C)NC(=O)[C@H](C)NC(=O)[C@H](CC(C)C)NC(=O)[C@@H](N)CCCCN)C(=O)N[C@@H](CCCCN)C(=O)N[C@@H](C)C(=O)N[C@@H](C)C(=O)N[C@@H](CC(C)C)C(=O)N[C@@H](CCCCN)C(=O)N[C@@H](CC(C)C)C(=O)N[C@@H](C)C(N)=O [MAP],fastest cellular uptake,2.72,–,–,–,–,–,–,–,–,–,–,–,–,–
CC(C)C[C@H](NC(=O)[C@H](C)NC(=O)[C@H](CCCCN)NC(=O)[C@H](CC(C)C)NC(=O)[C@H](C)NC(=O)[C@H](CC(C)C)NC(=O)[C@H](CCCCN)NC(=O)[C@H](CC(C)C)NC(=O)[C@H](C)NC(=O)[C@H](CC(C)C)NC(=O)[C@H](CCCCN)NC(=O)[C@@H](N)Cc1cn(CC(=O)Nc2c3c(nc4ccccc24)CCCC3)nn1)C(=O)N[C@@H](CCCCN)C(=O)N[C@@H](C)C(=O)N[C@@H](C)C(=O)N[C@@H](CC(C)C)C(=O)N[C@@H](CCCCN)C(=O)N[C@@H](CC(C)C)C(=O)N[C@@H](C)C(N)=O [MAP-Tacrine conjugate],–,2.73,additive effect,synergistic effect,6.07,highly toxic,highly toxic,cell damage observed was similar to that caused by MAP alone,significantly decreased cell count,significantly decreased cell count,severe drop in cell count,–,–,–,–
Nc1c2c(nc3ccccc13)CCCC2 [Tacrine],–,–,–,–,–,–,–,No significant differences in cell morphology,did not affect the number of cells in culture,did not affect the number of cells in culture,no significant effects,no significant differences,no significant differences,antiproliferative activity,increased the cytotoxicity
